Among the test systems are SW-620; HCT-15; SN12C; MDA-MB-435; NCI-H460; SF-295; HCT-116; TK-10; UACC-257; A498; U-251; T47D; UACC-62; HOP-62; SK-OV-3; OVCAR-5; OVCAR-4; OVCAR-3; NCI-H226.
Experiment in all cases: NCI anticancer screen, dose series, 48 h

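Exposure lasted 48 hours, with cells grown in 96-well plates and compounds tested at five concentrations. The concentration for 50% growth inhibition is given as GI50.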 Active and inactive are the calls of the source. Cut-off read from the data, not from the text of the source: active = GI50 up to about 1.1 µM and inactive = higher.

With `NCCCN1CCN(CCCNc2ccc3ncn4c5ccccc5c(=O)c2c34)CC1`, the GI50 in the assay with SW-620 is 1.32 µM (inactive); with HCT-15, 4.4 µM; in the assay on SN12C it was 0.826 µM (active); in the assay with MDA-MB-435, 1.46 µM (inactive); in the assay on NCI-H460, 1.31 µM (inactive); with SF-295 it was 3.71 µM (inactive). Besides, the GI50 in the assay with HCT-116 is 1.03 µM (active); in the assay with TK-10, 4.2 µM (inactive); in the assay on UACC-257 it was 5.97 µM (inactive); with A498, 1.69 µM (inactive); with U-251, 1.02 µM (active); in the assay on T47D, 3.02 µM (inactive). Further, the GI50 was 2.14 µM (inactive) in the assay with UACC-62; 1.71 µM (inactive) with HOP-62; 4.98 µM (inactive) in the assay on SK-OV-3; 3.61 µM (inactive) in the assay with OVCAR-5; 0.728 µM (active) in the assay with OVCAR-4; 4.07 µM (inactive) with OVCAR-3.
Consider `CSc1ccc(C2C(Cl)C(=O)N2NC(=O)c2c(Cl)c(Cl)c(Cl)c(Cl)c2-c2nc3ccccc3[nH]2)cc1` (stereo unspecified), for which the GI50 was 25.8 µM (inactive) in the assay with SW-620; 19.1 µM in the assay on HCT-15; 15.8 µM (inactive) in the assay with SN12C; 13.3 µM (inactive) in the assay with MDA-MB-435; 33.1 µM (inactive) in the assay with SF-295; 15.8 µM (inactive) in the assay on HCT-116. Moreover, the GI50 with UACC-257 was 27.2 µM (inactive); in the assay with A498 it was 31.8 µM (inactive); in the assay on T47D, 4.28 µM (inactive); in the assay on UACC-62, 29.8 µM (inactive); in the assay with HOP-62, 79.3 µM (inactive); in the assay on SK-OV-3 it was 26.6 µM (inactive). The GI50 in the assay on OVCAR-5 is 22.3 µM (inactive); in the assay with NCI-H226 it was 16.1 µM (inactive); in the assay on OVCAR-3, 21.8 µM (inactive).
In the case of `COc1cc(/C=C/C=C2\CC(C)C/C(=C\C=C\c3ccc(O)c(OC)c3)C2=O)ccc1O` (stereo unspecified), the GI50 is 12.7 µM (inactive) with SW-620; 25.1 µM with HCT-15; 31.3 µM (inactive) with SN12C; 8.32 µM (inactive) in the assay with MDA-MB-435; 14.5 µM (inactive) with NCI-H460; 15 µM (inactive) with HCT-116. Besides, the GI50 in the assay on TK-10 was 3.05 µM (inactive); with UACC-257, 20.2 µM (inactive); in the assay on U-251, 12.1 µM (inactive); with T47D, 7.48 µM (inactive); with UACC-62, 11.9 µM (inactive); in the assay on HOP-62 it was 17.4 µM (inactive). In addition, the GI50 in the assay with SK-OV-3 was 4.83 µM (inactive); with OVCAR-5, 14.4 µM (inactive); with OVCAR-4, 4.83 µM (inactive); in the assay with NCI-H226 it was 14.8 µM (inactive); with OVCAR-3 it was 10.8 µM (inactive).
As to `CC(=O)Nc1sccc1S(=O)(=O)c1ccc(Cl)cc1`, the GI50 with SW-620 was > 100 µM (inactive); with HCT-15, over 100 µM; in the assay on SN12C, > 100 µM (inactive); with MDA-MB-435, > 100 µM (inactive); in the assay on NCI-H460, > 100 µM (inactive); with SF-295, > 100 µM (inactive). Also, the GI50 in the assay with HCT-116, in the assay on TK-10, in the assay on UACC-257, in the assay on U-251, in the assay with T47D and with UACC-62 was > 100 µM (inactive) in each case. The GI50 with SK-OV-3, in the assay on OVCAR-5, in the assay with OVCAR-4, with NCI-H226 and in the assay with OVCAR-3 was > 100 µM (inactive) throughout.
Turning to `C[C@]12c3c4cc(NC(=O)C(=O)NCc5ccc(-c6ccccn6)nc5)cc3Oc3cc(NC(=O)C(=O)NCc5ccc(-c6ccccn6)nc5)cc(c31)OC1C=C(NC(=O)C(=O)NCc3ccc(-c5ccccn5)nc3)C=C(O4)C12` (stereo partly specified), the GI50 in the assay with SW-620 was > 100 µM (inactive); with HCT-15, 27.8 µM; in the assay on SN12C, 40.9 µM (inactive); in the assay on MDA-MB-435, 97.9 µM (inactive); in the assay on NCI-H460 it was 17.1 µM (inactive); in the assay with SF-295 it was 25.4 µM (inactive). The GI50 was 29.2 µM (inactive) with HCT-116; > 100 µM (inactive) in the assay with TK-10; 52.2 µM (inactive) in the assay on UACC-257; 84.9 µM (inactive) in the assay with U-251; 26.7 µM (inactive) in the assay on T47D; 24.5 µM (inactive) in the assay on UACC-62. Also, the GI50 is > 100 µM (inactive) with HOP-62; 17 µM (inactive) in the assay with SK-OV-3; > 100 µM (inactive) in the assay with OVCAR-5; 3.47 µM (inactive) in the assay on OVCAR-4; 29.6 µM (inactive) in the assay on NCI-H226; 35.6 µM (inactive) in the assay on OVCAR-3.
With `COC1=C(OC)C(=O)C(Cc2c(Cl)nc3sc(C)cn23)=C(C)C1=O`, the GI50 with SW-620 is 21.3 µM (inactive); in the assay with HCT-15 it was 24.9 µM; in the assay with SN12C, 15.9 µM (inactive); in the assay with MDA-MB-435, 18.2 µM (inactive); in the assay with NCI-H460, 16.7 µM (inactive); with SF-295, 16.6 µM (inactive). Moreover, the GI50 in the assay with HCT-116 is 23 µM (inactive); in the assay on TK-10 it was 16.4 µM (inactive); with UACC-257, 10.4 µM (inactive); in the assay on A498, 22.9 µM (inactive); in the assay with U-251, 17.9 µM (inactive); in the assay with T47D, 23.9 µM (inactive). The GI50 is 11.6 µM (inactive) in the assay with UACC-62; 19.3 µM (inactive) with HOP-62; 17.5 µM (inactive) in the assay with SK-OV-3; 18.2 µM (inactive) with OVCAR-5; 7.5 µM (inactive) in the assay with OVCAR-4; 12.2 µM (inactive) in the assay with OVCAR-3.
As for `CCOC(=O)NC(=S)c1ccc(O)c2ccccc12`, the GI50 is 51.6 µM (inactive) in the assay with SW-620; 36.6 µM in the assay on HCT-15; 40.7 µM (inactive) with MDA-MB-435; 38.8 µM (inactive) with NCI-H460; 46.3 µM (inactive) in the assay with SF-295; 84.7 µM (inactive) with HCT-116. For the same compound, the GI50 with UACC-257 is > 100 µM (inactive); in the assay on A498, > 100 µM (inactive); in the assay on U-251, > 100 µM (inactive); in the assay with T47D it was > 100 µM (inactive); in the assay on UACC-62 it was 68.1 µM (inactive); in the assay with HOP-62, 77.1 µM (inactive). The GI50 is 45.1 µM (inactive) with SK-OV-3, > 100 µM (inactive) with OVCAR-5, > 100 µM (inactive) in the assay with OVCAR-4 and 49.8 µM (inactive) in the assay on OVCAR-3.
On to `Cc1ccc(S(=O)(=O)Oc2ccc(OS(=O)(=O)c3ccc(C)cc3)c3c2C(=O)c2ccccc2C3=O)cc1`, for which the GI50 with SW-620 is > 100 µM (inactive); in the assay on HCT-15 it was over 100 µM; in the assay on SN12C, > 100 µM (inactive); in the assay on MDA-MB-435, > 100 µM (inactive); with NCI-H460 it was > 100 µM (inactive); in the assay with HCT-116, > 100 µM (inactive). Also, the GI50 was > 100 µM (inactive) in the assay with TK-10; > 100 µM (inactive) with UACC-257; > 100 µM (inactive) in the assay with U-251; > 100 µM (inactive) in the assay on T47D; > 100 µM (inactive) with UACC-62; 37.8 µM (inactive) with HOP-62. For the same compound, the GI50 in the assay with SK-OV-3, in the assay with OVCAR-5, in the assay on OVCAR-4, in the assay on NCI-H226 and in the assay on OVCAR-3 was > 100 µM (inactive) in each case.

These data come from ChEMBL document CHEMBL1201862, “PubChem BioAssay data set” (2004).
